Data on one molecule can be found in patent US20060167109A1, “Methods of reducing rhinovirus contagion and related compositions” (priority 2002, published 2006).

Common to all, as to type: cell-based, human rhinovirus
One test relates to HRV, four serotypes. In words: Virus yield reduction assay, single cycle of growth. Conditions: all four viruses, nontoxic drug concentrations, MOI 1, 12 hours. On the procedure:
To assess the inhibition by pleconaril of HRV production from a single cycle of virus replication, virus yield experiments were performed. Cells were infected at a multiplicity of infection (MOI) of 1 infectious virion per cell with virus that had been pre-treated with pleconaril at various drug concentrations. After 12 hours of infection (a single replication cycle), the amount of virus produced was quantified. Pleconaril inhibited virus production in a concentration dependent manner. The yield of progeny virus was reduced by >99% for all four viruses at nontoxic drug concentrations.
Virus was pretreated with various concentrations of pleconaril for 1 hour at 4° C. Confluent, 1-day-old monolayers of Hela (WIS) cells in 6 well plates were infected with virus at a multiplicity of infection (MOI) of approximately 1 plaque-forming unit per cell. After a 1 hour attachment period at 33° C., the inoculum was removed, the monolayers were washed 3 times with Dulbeccos modified phosphate buffer (DPBS)(JRH Biosciences, Lenexa, Kans.) and overlaid with 3 ml of media containing either the appropriate concentration of pleconaril or drug solvent (0.25% DMSO) alone. Incubation was continued for 12 hours at 33° C. and 2.5% CO2. All plates were frozen/thawed 3 times at −80° C. prior to quantification of virus yield in the virus cytopathic effect assay.

Test [1] relates to HRV3. In words: Low pH inactivation. Conditions: 2 μM, pH 5.2, FIG. 4. Here is the method: As a second indication of the direct interaction of the drug with the virion capsid, an experiment was conducted to examine the ability of pleconaril to protect HRV3 from low pH inactivation.
Approximately […] plaque forming units (PFU) of virus were incubated with 0.5% DMSO or 2 μM pleconaril (in 0.5% DMSO) overnight at 4° C. For HRV3, samples were diluted into sodium acetate buffer (1 M, pH 5.2 or pH 7.0) for 30 minutes on ice followed by neutralization with 2 volumes of 1M Tris-HCl, pH 8.0. All samples were extracted twice with chloroform prior to titration in the viral cytopathic effect assay on HeLa cells (see below).

The test system of test [2] is HRV3. In words: Uncoating inhibition. Conditions: 2 μM, 2 hours at 33° C. On the procedure:
Following attachment to susceptible cells, rhinoviruses are endocytosed and disassembled or uncoated in order to release the viral RNA for subsequent gene expression and RNA replication. To determine if pleconaril affected the uncoating stage of the virus infection cycle, two types of experiments were carried out. In the first approach, an experiment was conducted to follow directly the fate of intact ^35S-radiolabeled (156S) virions attached to cells that were then allowed to proceed through virion disassembly (uncoating) in either the absence or presence of pleconaril. HRV3 virus was chosen for this experiment, as it is representative of the respective genera, and because binding of pleconaril was fully reversible with dilution, minimizing the possibility of drug carryover issues.
After virion attachment, either pleconaril (2 μM) or DMSO control solution was added to the cultures. After an additional 1 hour, the culture was shifted to 33° C., a temperature that permitted virus uncoating. After 2 hours, cell lysates were prepared and the amount of intact 156S virions was assessed by sedimentation of the lysates on continuous sucrose density gradients. […]

Test [3] concerns HRV3. Nature of the test: RNA replication, viral RNA synthesis. Conditions: 2 μM, pleconaril-treated cells. On the procedure: Immediately after uncoating, viral gene expression (protein translation) and viral RNA replication begin. However, uncoating must occur before either of these two processes can be initiated. In experiments conducted similarly to the uncoating experiment described above, an experiment was conducted to measure viral RNA synthesis in the presence and absence of pleconaril. At the end of the 2 hours temperature shift, actinomycin D was added to the culture medium to inhibit cellular DNA-dependent RNA synthesis. After 2 hours in the presence of actinomycin D, no cellular RNA synthesis was detectable. At that time, ^3H-uridine was added to the medium and the incubation was allowed to proceed 2.5 hours (a total of 6.5 hours post-attachment). Total cellular RNA was then recovered, electrophoresed on an agarose-urea gel and visualized by fluorography.
HeLa cells in 6 well plates were infected at an MOI of 5 PFU/cell with 1 mL of HRV3 for 1 hour at room temperature in the presence or absence of 2 μM pleconaril. After virus attachment, the incubation was continued for an additional 2 hrs at 33° C. (HRV3). The inoculum was then removed and 3 mL/well of M199 medium with 5% FBS and 5 μg/mL of actinomycin D was added with 2 μM pleconaril or DMSO only (0.5% final concentration). The cells were returned to the incubator for 2 hours, at which time 300 μCi of ^3H-uridine (Amersham) was added per well. […]

The structures appear in SMILES notation.

For `Cc1cc(CCCOc2c(C)cc(-c3noc(C(F)(F)F)n3)cc2C)on1` [pleconaril, 3-[3,5-dimethyl-4-[3-(3-methyl-5-isoxazolyl)propoxy]phenyl]-5-(trifluoromethyl)-1,2,4-oxadiazole], in the test on HRV, four serotypes, the “reduction of yield of progeny virus” value was > 99%. Besides, the “protection from low pH inactivation” value in the test on HRV3 [1] is recorded as “protect HRV3 from low pH-induced degradation”. Also, in the test with HRV3 [2], the “reduction in the amount of attached intact 156S virions (uncoating)” value is given as “minimal reduction”. Also, the “HRV3 RNA synthesis” value in the test on HRV3 [3] was “completely blocked”.
